In general, GI50 refers to the concentration that inhibits growth by half. A word on the melting point: it is the temperature, or range, at which the solid turns liquid.

In series [1] the test system is PC-3 cells. Description: cellular growth (proliferation) assay, resazurin. Type of series: cell-based. Here is the method:
Growth assays on VEGFR-2 dependent PC-3 cells were performed.
PC-3 cells were purchased from CLS Cell Lines Service GmbH (Eppelheim, Germany). The cells were grown in DMEM:Hams F12 (1:1) medium with 5% FCS. PC-3 cells were incubated in a 5% CO2 humidified atmosphere at 37 °C.
The cells were grown in cell flasks until approximately 90% confluence and then seeded to give 13000 cells in 100 μL per well into 96-well CulturePlates™ (Perkin Elmer). In addition to the test plates, one plate was prepared for reference measurement at day zero. All plates were incubated for 24 h at 37 °C in a humidified atmosphere with 5% CO2. Compounds 1, 3, 4, and 5 were dissolved in 100% DMSO (v/v) and added to the test plates. The final DMSO concentration in the assay was 0.5% (v/v). Viability of the cells in the day zero control plates were determined on the same day without adding any compounds. For viability measurement the resazurin assay was used. The shift in the fluorescence signal was measured at the LS55 Fluorescence spectrometer (Perkin Elmer). For the photoactivation experiments the test plates were irradiated at 365 nm for 5 min (LED source: 8× Nichia NCSU033B, Sahlmann Photochemical Solutions, 50%, 1.1 kW/m^2). Test plates were incubated for further 48 h and cell viability was defined as described above. Measured raw data was converted into percent of cell growth by using the high control (0.5% DMSO (v/v) without compound) and the day zero control. For dose-response studies, 11 different concentrations of compounds were tested in duplicates. IC50 values were calculated using the 4-parameter logarithmic fit option of GraphPad Prism 5.
Background: Resazurin is reduced to fluorescent resorufin, in cell work by metabolically active cells.

For series [2], the target named is IR-HIS (Homo sapiens, UniProt P06213). Briefly: kinase profiling, radioactive filter binding assay. In kind it is biochemical. To be noted: 0.1 µM compound, assay duplicates; read-out: residual activity of IR-HIS, mean percentage activity. The gist of the method:
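Single-concentration profiling at 0.1 µM compound, delivered in DMSO. Radiometric filter binding assay with 33P ATP; mean % remaining activity and SD from duplicates.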

Series [3] can be described thus: UV stability at 365 nm in DMSO (HPLC, LC-MS). To be noted: 1 mM in DMSO, 5.4 W, up to 10 min.
Procedure: HPLC and LC-MS analysis were used for content determination.
Aliquots were diluted 1:10 with methanol and analyzed by HPLC.
Series [4] deals with PC-3 cells. Briefly: cellular uptake by fluorescence microscopy (cell staining). As to conditions: live PC-3 cells, 10 µM, 30 min, autofluorescence. Type of series: cell-based. Here is the method:
Next, we investigated the cellular bioavailability of the caged prodrugs. For this purpose, we used the autofluorescence of the carbazole 3 and its caged derivative 5. The emission spectra of both compounds are shown in the Supplementary Figure S6. The fluorescence microscopy was used to explore the uptake of the compounds into the cells. Live PC-3 cells were stained with 10 µM solutions of 3 or 5, and then fixed with formalin. Subsequently, the cell nuclei were counterstained with 1 µg/mL DAPI.
PC-3 cells were stained with the carbazole 3 and its caged derivative 5. For this purpose, the cells were seeded to give 15,000 cells in 50 µL per well into 96-well half area microplate (Ref.: 675986, Greiner bio-one, Kremsmünster, Austria). The plate was incubated for 48 h at 37 °C in a humidified atmosphere with 5% CO2. Compounds 3 and 5 were dissolved in DMEM:Hams F12 (1:1) medium with 5% FCS and added to the cells to give the endconcentration of 10 µM, respectively. The cells were incubated with the compounds for 30 min at 37 °C. After that, the cells were washed twice with PBS and fixed with 3.3% formalin for 15 min. […] After 30 min incubation at 37 °C, the cells were washed with PBS and the fluorescence images were taken at the ImageXpress® Micro XL (Molecular Devices, Sunnyvale CA, USA). […]

The mark [5] stands for this setting: Homo sapiens, PC-3, light or radiation study, 48 h, no UV irradiation, cell growth after 48 h, read-out: GI50 without Irradiation.
Where [6] appears, read: Homo sapiens, PC-3, light or radiation study, irradiated at 365 nm, 5 min, 1.1 kW/m^2, cell growth after 48 h, read-out: GI50 after Irradiation.

SMILES strings stand for the structures. Like-named read-outs stand apart in the source and are kept apart here.

Chain of IR-HIS (P06213 28-1382): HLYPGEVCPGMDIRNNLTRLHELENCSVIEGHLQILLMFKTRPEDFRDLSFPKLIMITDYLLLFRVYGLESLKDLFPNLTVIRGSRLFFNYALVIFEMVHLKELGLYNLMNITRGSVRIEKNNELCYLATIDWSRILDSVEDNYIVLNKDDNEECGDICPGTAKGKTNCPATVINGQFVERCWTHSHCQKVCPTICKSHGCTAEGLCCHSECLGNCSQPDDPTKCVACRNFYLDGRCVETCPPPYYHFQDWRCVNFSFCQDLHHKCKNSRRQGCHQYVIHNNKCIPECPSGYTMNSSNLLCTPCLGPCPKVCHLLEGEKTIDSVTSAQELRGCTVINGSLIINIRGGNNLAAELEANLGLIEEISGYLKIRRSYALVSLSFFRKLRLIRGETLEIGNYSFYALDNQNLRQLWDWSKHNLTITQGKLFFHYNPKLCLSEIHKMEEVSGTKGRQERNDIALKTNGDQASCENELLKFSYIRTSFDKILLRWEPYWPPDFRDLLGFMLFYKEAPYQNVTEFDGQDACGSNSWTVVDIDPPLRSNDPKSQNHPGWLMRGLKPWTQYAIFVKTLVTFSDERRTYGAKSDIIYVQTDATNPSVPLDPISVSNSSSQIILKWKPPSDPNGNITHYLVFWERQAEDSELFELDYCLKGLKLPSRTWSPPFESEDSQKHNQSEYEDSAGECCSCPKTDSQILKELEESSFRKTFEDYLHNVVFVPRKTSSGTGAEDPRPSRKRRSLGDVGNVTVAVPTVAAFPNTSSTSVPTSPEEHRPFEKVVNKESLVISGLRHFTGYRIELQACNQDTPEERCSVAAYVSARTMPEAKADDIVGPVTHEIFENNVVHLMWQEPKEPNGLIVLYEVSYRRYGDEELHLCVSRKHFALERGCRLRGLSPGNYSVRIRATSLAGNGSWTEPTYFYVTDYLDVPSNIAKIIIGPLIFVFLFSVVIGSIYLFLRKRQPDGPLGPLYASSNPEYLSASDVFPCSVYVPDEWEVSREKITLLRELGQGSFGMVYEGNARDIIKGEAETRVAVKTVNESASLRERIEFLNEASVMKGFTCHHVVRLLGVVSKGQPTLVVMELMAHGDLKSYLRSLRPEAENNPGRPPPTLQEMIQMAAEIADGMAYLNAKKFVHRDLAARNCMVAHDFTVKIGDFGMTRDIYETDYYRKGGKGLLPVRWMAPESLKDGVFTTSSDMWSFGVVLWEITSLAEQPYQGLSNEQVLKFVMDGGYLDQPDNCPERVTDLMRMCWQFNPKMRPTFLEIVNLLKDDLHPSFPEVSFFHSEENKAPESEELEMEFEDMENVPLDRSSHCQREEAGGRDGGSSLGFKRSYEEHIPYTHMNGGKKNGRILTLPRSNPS

With `COc1cc(C2=C(c3c[nH]c4ccccc34)C(=O)NC2=O)cc(OC)c1OC` [Compound 1, 3-(1H-Indol-3-yl)-4-(3,4,5-trimethoxyphenyl)-1H-pyrrole-2,5-dione], the GI50 came out at 6400 nM in series [1] (setting [5]) and 2900 nM in series [1] (setting [6]).
Compound `COc1cc2c3c(c4c5ccccc5[nH]c4c2c(OC)c1OC)C(=O)NC3=O` [Compound 3, 5,6,7-Trimethoxybenzo[a]pyrrolo[3,4-c]carbazole-1,3(2H,8H)-dione] had a melting point of 275 °C. The remaining activity at 0.1 µM in series [2] was 88%. The “UV stability under irradiation at 365 nm” value in series [3] is “quite stable”. Moreover, the GI50 in series [1] (setting [5]) was 200 nM. In series [1] (setting [6]), the GI50 stood at 380 nM. In addition, in series [1] (irradiated at 365 nm, 5 min, 1.1 kW/m^2, cell growth after 48 h, read-out: GI50 after Irradiation), the GI50 is 400 nM. Also, the cellular uptake entry in series [4] is “taken up into the cells, but not within the cell nuclei”.

The values are drawn from paper PMC6274539, “Photoactivatable Caged Prodrugs of VEGFR-2 Kinase Inhibitors” (Molecules, 2016).
